Test results reported in patent publication US8426367B2, “Peptides specific for human blood outgrowth endothelial cells” (The University of North Carolina at Chapel Hill, priority 2007, dated 2013).

Tests used:
[1] = tested on: panel of other cell types; assay: Binding specificity: biopanning of HBOEC-selected phage clones on a panel of other cell types; design: species or system human; conditions: 1.10^11 phage, 1 hour at 4° C., FIG. 3
Protocol: Lymphocytes and neutrophils were obtained from the same preparation. Lymphocytes were collected from the supernatant of the cultured buffy coat mononuclear cells that were allowed to adhere for 48 hours. The cell concentration was adjusted to 1.10^5 cells per ml.
Neutrophils were collected from the lower portion of the density gradient preparation. The upper layers were removed and processed as described above. The neutrophil-rich Histopaque layer was transferred to a centrifuge tube and diluted in fresh RPMI to wash the cells free of Histopaque. The suspension was centrifuged at 700×g for 15 min at room temperature. The supernatant was aspirated and the pellet resuspended in 10 ml of RPMI and centrifuged at 700×g for 10 min at room temperature. Contaminating red cells were lysed by quickly re-suspending the pellet in sterile water at 4° C. After 30 sec an equal volume of 1.8% saline solution was added in order to return the solution to isotonicity. The suspension was then centrifuged for 10 min at 250×g at 4° C. The cell lysis step was repeated. The final pellet was re-suspended and concentration adjusted to 1.10^5 cells per ml.
(§1) HUVEC were from the American Type Culture Collection (ATCC, Manassas, Va.). Passages 4 to 8 were used in this study. HUVEC were cultured in EGM-MV medium (Cambrex) at 37° C. in an incubator with humid atmosphere and 5% CO2.
Peripheral blood human HL-60 promyelocytic cells from the American Type Culture Collection (ATCC) were cultured in RPMI 1640 medium supplemented with 20% fetal bovine serum.
The specificity of HBOEC-selected phage clones was determined by biopanning on a panel of other cell types. The biopanning procedure was carried as described above with the exception of including the pre-clearing incubation step.

[2] = tested on: human blood outgrowth endothelial cells (HBOEC); assay: Homogeneous phage recovery (relative binding) on HBOEC; conditions: for concentration dependence of homogeneous recovery (binding to HBOEC): 1.10^9, 1.10^10, 1.10^11 pfu, 1 h at 4° C.; for concentration dependence of homogeneous recovery (binding to HBOEC) / relative recovery / affinity-avidity among the four selected phage clones: FIG. 1B; for relative recovery / affinity-avidity among the four selected phage clones: four clones with different consensus motifs
Protocol: Cells at 80% confluence were detached by treating with 0.05% trypsin-EDTA, washed once with EGM-2 medium and resuspended in EGM-2 containing 1% BSA at 1.10^5 cells per ml. In the pre-clearing step, 1 ml of HUVEC suspension at 1.10^5 cells per ml were incubated with 10 μl of PhD-12 peptide phage display system (New England Biolabs, Beverly, Mass.) within 1.5 ml Eppendorf tube for 2 hours at 4° C.; the mixture was then centrifuged. In the screening step, the unbound phage pool remaining in the supernatant was transferred to a fresh tube and incubated with 1 ml of HBOEC at 1.10^5 cells per ml. After 1 hour incubation at 4° C., the cell-phage complexes were separated by centrifugation. Following five intensive washes with TBS-0.5% Tween-20 buffer the bound phage was non-specifically eluted with 0.2 M Glycine-HCl buffer (pH 2.2) for 10 min. The eluate was immediately neutralized by 1M Tris.HCl buffer (pH 9.0). An aliquot of the eluted phage was used for determining titer by plaque assay. The rest of the phage eluate was amplified in mid-log phase E. coli ER2738 (New England Biolabs), and purified by precipitation with polyethylene glycol. An aliquot of the amplified phage was subsequently re-applied to newly trypsinized cells for a total of three biopanning rounds and two amplification steps.
Once isolated individual phage clones were subjected to evaluation of relative binding. High titer stocks of homogeneous phage were generated. Serially diluted phage (1.10^9 pfu, 1.10^10 pfu, and 1.10^11 pfu) were incubated with HBOEC (1.10^5 cells) for 1 h at 4° C. and then subjected to the same wash protocol used for the selection experiments. In parallel the same procedure was carried in a blocked Eppendorf tube without HBOEC to test for non specific binding for each selected sequence to the plastic container. Binding ratio is defined as recovery of phage bound to the target cells normalized to the recovery of phage non-specifically bound to the plastic.

[3] = tested on: HUVEC; assay: Cell binding assay: HUVEC attachment to peptide-modified substrates; assay type: cell-based, human; conditions: compared to RGE negative controls; FIG. 8D
Protocol: as §1
Peptide sequences were immobilized to methacrylic terpolymers via one step chain transfer controlled free radical polymerization as described by Fussell and Cooper (Fussell 2004a and Fussell 2004b). The monomers used in the reactions were n-hexyl methacrylate (HMA) (Alfa Aesar, Ward Hill, Mass.), methyl methacrylate (MMA) (ACROS Organics, Pittsburgh, Pa.), and methacrylic acid (MAA) (ACROS Organics, Pittsburgh, Pa.), with 2,2-azobisisobutyronitrile (AIBN) (Aldrich Chemical, Milwaukee, Wis.) as the initiator. The molar ratio of the monomers in the reaction mixture was HMA:MMA:MAA—20:78:2. The peptides were added with the monomers after the solvent was purged with argon. The reaction temperature for the polymerization was 55-60° C. and reactions were carried out overnight.
Peptide grafted materials were coated on round microscope cover glass slides. Glass slides were sterilized by immersion in 70% ethanol. […] Digital images were taken from 15 random fields per sample and quantified by computer assisted analysis.

| Substance | recovery on cell types other than the target cells [1] | concentration dependence of homogeneous recovery (binding to HBOEC) [2] | HUVEC attachment [3] | relative recovery / affinity-avidity among the four selected phage clones [2] | binding ratio (recovery of phage bound to target cells normalized to phage non-specifically bound to plastic) ([2]; 1.10^11 pfu homogeneous phage, 1.10^5 HBOEC, 1 hour at 4° C., FIG. 2) | relative recovery among phage bearing the TP(S/T/G) motif ([2]; 1.10^11 pfu, FIG. 2) |
| --- | --- | --- | --- | --- | --- | --- |
| SVPPRYTLTLQW (Human outgrowth endothelial cell-binding peptides isolated from phage library) [SEQ ID NO:7] | No significant recovery | bind HBOEC over a range of concentrations in a dose-dependent manner |  |  |  |  |
| fibronectin |  |  | statistically significant |  |  |  |
| MPTLTRAPHTAC (Human outgrowth endothelial cell-binding peptides isolated from phage library) [SEQ ID NO:37] | No significant recovery | bind HBOEC over a range of concentrations in a dose-dependent manner |  | lowest affinity/avidity |  |  |
| SPPPSNAGSHHV (Human outgrowth endothelial cell-binding peptides isolated from phage library) [SEQ ID NO:32] | No significant recovery | bind HBOEC over a range of concentrations in a dose-dependent manner |  |  |  |  |
| TPSLEQRTVYAK (Human outgrowth endothelial cell-binding peptides isolated from phage library) [SEQ ID NO:17] | No significant recovery | bind HBOEC over a range of concentrations in a dose-dependent manner |  | highest recovery | 43±20 | highest recovery |
